Measurements published in ChEMBL document CHEMBL5346893, “1,2,4-Amino-triazine derivatives as pyruvate dehydrogenase kinase inhibitors: Synthesis and pharmacological evaluation” (Eur J Med Chem, 2023).
Activity calls are given as the source filed them. No cut-off for these calls is given here.

Key:
[1] = molecular target: T1, [Pyruvate dehydrogenase (acetyl-transferring)] kinase isozyme 1, mitochondrial (Homo sapiens, UniProt Q15118); experiment: Inhibition of PDK1 (unknown origin) at 1.5 uM incubated for 30 mins followed by substrate addition measured after 60 mins in presence of ATP by ADP-Glo luminescent assay relative to control; conditions: time 90.0 min, values are per cent of control
[2] = molecular target: T1, [Pyruvate dehydrogenase (acetyl-transferring)] kinase isozyme 1, mitochondrial; experiment: Inhibition of PDK1 (unknown origin) incubated for 30 mins followed by substrate addition measured after 60 mins in presence of ATP by ADP-Glo luminescent assay
[3] = molecular target: [Pyruvate dehydrogenase (acetyl-transferring)] kinase isozyme 4, mitochondrial (Homo sapiens) (UniProt Q16654); experiment: Inhibition of PDK4 (unknown origin) at 1.5 uM incubated for 30 mins followed by substrate addition measured after 60 mins in presence of ATP by ADP-Glo luminescent assay relative to control; conditions: time 90.0 min
[4] = molecular target: [Pyruvate dehydrogenase (acetyl-transferring)] kinase isozyme 2, mitochondrial (Homo sapiens) (UniProt Q15119); experiment: Inhibition of PDK2 (unknown origin) at 1.5 uM incubated for 30 mins followed by substrate addition measured after 60 mins in presence of ATP by ADP-Glo luminescent assay relative to control; conditions: time 90.0 min
[5] = molecular target: [Pyruvate dehydrogenase (acetyl-transferring)] kinase isozyme 3, mitochondrial (Homo sapiens) (UniProt Q15120); experiment: Inhibition of PDK3 (unknown origin) at 1.5 uM incubated for 30 mins followed by substrate addition measured after 60 mins in presence of ATP by ADP-Glo luminescent assay relative to control; conditions: time 90.0 min
[6] = molecular target: T2, Heat shock protein HSP90 (Homo sapiens, UniProt P07900+P08238); experiment: Inhibition of human recombinant HSP90 at 1.5 uM incubated for 30 mins by fluorescence polarization based analysis relative to control; assay type: protein assay
[7] = molecular target: T2, Heat shock protein HSP90; experiment: Inhibition of human recombinant HSP90 incubated for 30 mins by fluorescence polarization based analysis; assay type: protein assay
[8] = system: BXPC-3; experiment: Antiproliferative activity against human BXPC-3 cells expressing wild type KRAS cultured as 2D spheroids assessed as inhibition of cell growth measured after 72 hrs by MTT assay; assay type: functional, cell-based; conditions: BXPC-3, 72 h
[9] = system: PSN1; experiment: Antiproliferative activity against human PSN1 cells expressing KRAS mutant cultured as 2D spheroids assessed as inhibition of cell growth measured after 72 hrs by MTT assay; assay type: functional, cell-based; conditions: PSN1, 72 h
[10] = system: BXPC-3; experiment: Antiproliferative activity against human BXPC-3 cells expressing wild type KRAS cultured as 3D spheroids assessed as inhibition of cell growth measured after 72 hrs by MTT assay; assay type: functional, cell-based; conditions: BXPC-3, 72 h
[11] = system: PSN1; experiment: Antiproliferative activity against human PSN1 cells expressing KRAS mutant cultured as 3D spheroids assessed as inhibition of cell growth measured after 72 hrs by MTT assay; assay type: functional, cell-based; conditions: PSN1, 72 h
[12] = system: PSN1; experiment: Downregulation of PDHA1 phosphorylation in human PSN1 cells at IC50 incubated for 24 hrs by ELISA assay; assay type: functional, cell-based
[13] = system: PSN1; experiment: Inhibition of PDK in human PSN1 cells expressing KRAS mutant assessed as increase in cellular oxygen consumption at IC50 incubated for 60 mins by fluorescence based analysis; assay type: cell-based
[14] = system: PSN1; experiment: Inhibition of PDK in human PSN1 cells expressing KRAS mutant assessed as decrease in lactate production levels at IC50 incubated for 60 mins by colorimetric analysis; assay type: cell-based
[15] = system: PSN1; experiment: Induction of reactive oxygen species production in human PSN1 cells assessed as increase in cellular hydrogen peroxide formation at 5 uM by CM-H2DCFDA staining based analysis; assay type: functional, cell-based
[16] = system: PSN1; experiment: Induction of reactive oxygen species production in human PSN1 cells assessed as decrease in total cellular sulfhydryls level at IC50 incubated for 24 hrs by DTNB reagent based spectrophotometric analysis; assay type: functional, cell-based
[17] = system: PSN1; experiment: Induction of mitochondrial membrane potential loss in human PSN1 cells at IC50 incubated for 60 mins by fluorescence based analysis; assay type: functional
[18] = system: PSN1; experiment: Induction of mitochondrial damage in human PSN1 cells assessed as increase in mitochondria substantial swelling at IC50 incubated for 24 hrs by staining based TEM analysis; assay type: functional, cell-based
[19] = system: PSN1; experiment: Induction of mitochondrial damage in human PSN1 cells assessed as decrease in mitochondria inner membrane electron density at IC50 incubated for 24 hrs by staining based TEM analysis; assay type: functional, cell-based
[20] = system: PSN1; experiment: Induction of mitochondrial damage in human PSN1 cells assessed as decrease in mitochondria matrix region electron density at IC50 incubated for 24 hrs by staining based TEM analysis; assay type: functional, cell-based
[21] = system: PSN1; experiment: Induction of mitochondrial damage in human PSN1 cells assessed as increase in disruption of cristae at IC50 incubated for 24 hrs by staining based TEM analysis; assay type: functional, cell-based
[22] = system: PSN1; experiment: Induction of apoptosis in human PSN1 cells assessed as brightly stained nuclei at IC50 incubated for 48 hrs by Hoechst 33258 staining based confocal microscopic analysis; assay type: functional, cell-based
[23] = system: PSN1; experiment: Induction of apoptosis in human PSN1 cells assessed as chromatin condensation at IC50 incubated for 48 hrs by Hoechst 33258 staining based confocal microscopic analysis; assay type: functional, cell-based
[24] = In vivo antitumor activity against mouse Lewis lung carcinoma cell line implanted in C57BL mouse assessed as tumor growth inhibition at 20 mg/kg, ip administered daily on day 7 to 14 measured after 15 days; assay type: functional; conditions: 360 h, time 15 day, read-out: TGI
[25] = Toxicity in C57BL mouse implanted with mouse Lewis lung carcinoma cell line assessed as reduction in body weight loss at 20 mg/kg, ip administered daily on day 7 to 14 measured after 15 days; assay type: organism-based; conditions: in vivo, 360 h, time 15 day
[26] = Toxicity in C57BL mouse implanted with mouse Lewis lung carcinoma cell line assessed as anorexia at 20 mg/kg, ip administered daily on day 7 to 14 measured after 15 days; assay type: organism-based; conditions: in vivo, 360 h, time 15 day
[27] = system: Lewis lung carcinoma; experiment: In vivo antitumor activity against mouse Lewis lung carcinoma cell line implanted in C57BL mouse assessed as reduction in PDHA1 phosphorylation at 20 mg/kg, ip administered daily on day 7 to 14 measured after 15 days by ELISA assay; assay type: functional, organism-based; conditions: time 15.0 day
[28] = In vivo antitumor activity against mouse Lewis lung carcinoma cell line implanted in C57BL mouse assessed as tumor growth inhibition at 60 mg/kg, ip administered daily on day 7 to 14 measured after 15 days; assay type: functional; conditions: 360 h, time 15 day, read-out: TGI

T1 sequence (Q15118 whole entry): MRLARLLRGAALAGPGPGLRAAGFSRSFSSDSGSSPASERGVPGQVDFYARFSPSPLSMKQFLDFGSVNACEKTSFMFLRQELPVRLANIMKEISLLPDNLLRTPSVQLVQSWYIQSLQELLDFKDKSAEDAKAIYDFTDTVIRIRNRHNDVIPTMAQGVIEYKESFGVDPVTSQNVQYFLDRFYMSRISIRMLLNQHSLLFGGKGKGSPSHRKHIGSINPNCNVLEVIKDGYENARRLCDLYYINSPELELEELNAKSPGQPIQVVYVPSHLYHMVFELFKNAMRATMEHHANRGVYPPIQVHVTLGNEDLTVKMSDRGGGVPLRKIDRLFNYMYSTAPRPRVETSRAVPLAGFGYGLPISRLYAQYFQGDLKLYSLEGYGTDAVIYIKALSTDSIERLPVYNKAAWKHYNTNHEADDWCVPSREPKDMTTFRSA
[Pyruvate dehydrogenase (acetyl-transferring)] kinase isozyme 4, mitochondrial (Homo sapiens), sequence (Q16654 whole entry, looked up): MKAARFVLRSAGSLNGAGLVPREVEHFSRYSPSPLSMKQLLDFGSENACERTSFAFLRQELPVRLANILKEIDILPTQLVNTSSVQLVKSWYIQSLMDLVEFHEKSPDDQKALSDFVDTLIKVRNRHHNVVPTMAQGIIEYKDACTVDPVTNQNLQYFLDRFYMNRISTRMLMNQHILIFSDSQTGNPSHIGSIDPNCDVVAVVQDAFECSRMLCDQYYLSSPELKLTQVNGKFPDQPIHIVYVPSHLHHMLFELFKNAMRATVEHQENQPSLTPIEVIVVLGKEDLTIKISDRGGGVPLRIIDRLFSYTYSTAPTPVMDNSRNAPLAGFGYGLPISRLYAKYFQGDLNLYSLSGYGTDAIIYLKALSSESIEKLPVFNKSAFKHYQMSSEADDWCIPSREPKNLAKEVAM
[Pyruvate dehydrogenase (acetyl-transferring)] kinase isozyme 3, mitochondrial (Homo sapiens), sequence (Q15120 whole entry, looked up): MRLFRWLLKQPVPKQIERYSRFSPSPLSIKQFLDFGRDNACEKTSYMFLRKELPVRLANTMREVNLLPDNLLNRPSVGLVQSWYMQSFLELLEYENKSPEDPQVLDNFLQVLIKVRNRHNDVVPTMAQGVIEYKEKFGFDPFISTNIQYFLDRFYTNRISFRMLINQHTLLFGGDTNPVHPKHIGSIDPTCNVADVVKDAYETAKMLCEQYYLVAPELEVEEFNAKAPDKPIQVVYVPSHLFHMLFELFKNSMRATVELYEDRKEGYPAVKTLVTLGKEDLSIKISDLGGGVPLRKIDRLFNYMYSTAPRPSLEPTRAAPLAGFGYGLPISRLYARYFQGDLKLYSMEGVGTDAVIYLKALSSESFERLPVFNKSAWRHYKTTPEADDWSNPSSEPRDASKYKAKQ

residual activity [1] [%] | IC50 [2] [nM] | inhibition [3] [%] | inhibition [4] [%] | inhibition [6] [%] | IC50 [8] [nM] | IC50 [10] [nM] | SMILES | IC50 [7] [nM] | IC50 [9] [nM] | IC50 [11] [nM] | Activity [12] | inhibition [13] | inhibition [14] | Activity [15] | Activity [16] | Activity [18] | Activity [19] | Activity [20] | Activity [21] | Activity [22] | other results
60 | 210 | 60 | 100 | 40 | 100 | 24800 | Cn1cc(-c2nnc(N)nc2-c2c[nH]c3ccc(Br)cc23)c2cc(Br)cnc21 | 1400 | 1300 | 39100 | Active | Active | Active | Active | Active |  |  |  |  |  | Activity [17]: Active
 |  |  |  |  | 100 |  | Nc1ccn([C@@H]2O[C@H](CO)[C@@H](O)C2(F)F)c(=O)n1 [GEMCITABINE] |  | 20 |  |  |  |  |  |  |  |  |  |  |  | inhibition in vivo at 60 mg/kg [28]: 80%
0 | 60 | 0 | 100 | 60 | 200 | 6900 | Cn1cc(-c2nnc(N)nc2-c2c[nH]c3ccc(F)cc23)c2cc(Br)cnc21 |  | 600 | 11200 | Active | Active | Active | Active | Active | Active | Active | Active | Active | Active | Activity [17]: Active; Activity [23]: Active

SMILES | residual activity [1] [%] | IC50 [2] [nM] | inhibition [3] [%] | inhibition [4] [%] | inhibition [6] [%] | IC50 [8] [nM] | IC50 [10] [nM] | IC50 [7] [nM] | IC50 [9] [nM] | IC50 [11] [nM] | Activity [12] | inhibition [13] | inhibition [14] | Activity [15] | Activity [16] | Activity [18] | Activity [19] | Activity [20] | Activity [21] | Activity [22] | other results
COc1ccc2[nH]cc(-c3nnc(N)nc3-c3cn(C)c4ncc(Br)cc34)c2c1 | 0 | 30 | 0 | 100 | 0 | 100 | 3300 | 100 | 1000 | 11900 | Active | Active | Active | Active | Active | Active | Active | Active | Active | Active | inhibition [5]: 100%; Activity ([17]; 1 h): 45%; Activity [23]: Active; inhibition in vivo at 20 mg/kg [24]: 86%; Activity [25]: Non-Toxic; Activity [26]: ~ 20%; Activity [27]: Active
